From patent US10232035B2, “Conditionally replication deficient herpes virus and use thereof in vaccines” (THE REGENTS OF THE UNIVERSITY OF COLORADO, A BODY CORPORATE, priority 2012, dated 2019)

Tested on: SVV mutant 2
Conditions: decreasing amounts of TMP, FIG. 6
Description: Replication of mutant 2 was monitored by GFP expression (FIG. 5). […] GFP expression was monitored using an inverted microscope.

`COc1cc(Cc2cnc(N)nc2N)cc(OC)c1OC` [TMP, trimethoprim] was tested, and the “lowest amount of TMP that can be used with SVV mutant 2” value was 0.05 µM.
